“Also recorded” adds a separate entry of the source.
Experiments:
CD-1 or c57BL/6J mice = experiment: In vivo IVIS analysis of FLuc circRNA LNPs (whole body and ex vivo organs); conditions: for spleen to liver ratios: ex vivo IVIS analysis of tissues
Description: (§1) Lipid Nanoparticles (LNPs) were formed using a Precision Nanosystems Ignite instrument with a ‘NextGen’ mixing chamber. […] A 3:1 aqueous to ethanol mixing ratio was used. The formulated LNP then were dialyzed in 1 L of water and exchanged 2 times over 18 hours. Dialyzed LNPs were filtered using 0.2 µm filter. Prior to in vivo dosing, LNPs were diluted in PBS. LNP sizes were determined by dynamic light scattering. A cuvette with 1 mL of 20 μg/mL LNPs in PBS (pH 7.4) was measured for Z-average using the Malvern Panalytical Zetasizer Pro. The Z-average and polydispersity index were recorded.
as §1, with “formulated LNPs were” for “formulated LNP”, “then” for “then were”
as §1, with “formulated LNPs were” for “formulated LNP”, “then” for “then were”, “of 1×PBS” for “of water”
Female CD-1 or female c57BL/6J mice ranging from 22-25 g were dosed at 0.5 mg/kg RNA intravenously. Six hours after injection, mice were injected intraperitoneally with 200 μL of D-luciferin at 15 mg/mL concentration. 5 minutes after injection, mice were anesthetized using isoflurane, and placed inside the IVIS Spectrum In Vivo Imaging System (Perkin Elmer) with dorsal side up. Post 10 minutes injection, mice were scanned for luminescence. Mice were euthanized and organs were extracted within 25 minutes of luciferin injection to scan for luminescence in liver, spleen, kidneys, lungs, and heart. Images (FIGS. 33A-B, 34A-B, 35A-B) were analyzed using Living Images (Perkin Elmer) software. Regions of interest were drawn to obtain flux and average radiance and analyzed for biodistribution of protein expression (FIG. 32A-B).

splenic immune cells = experiment: In vivo Cre circRNA LNP transfection in Ai9 Cre reporter mice, tdTomato+ splenic immune cells; conditions: 0.5 mg/kg RNA intravenously, 48 hr
Description: Circular RNAs encoding Cre recombinase (Cre) are encapsulated into lipid nanoparticles as previously described. Female, 6-8 week old B6.Cg-Gt(ROSA)26Sortm9(CAG-tdTomato)Hze/J (Ai9) mice were dosed with lipid nanoparticles at 0.5 mg/kg RNA intravenously. Fluorescent tdTomato protein was transcribed and translated in Ai9 mice upon Cre recombination, meaning circular RNAs have been delivered to and translated in tdTomato+ cells. After 48 hr, mice were euthanized and the spleens were harvested, processed into a single cell suspension, and stained with various fluorophore-conjugated antibodies for immunophenotyping via flow cytometry.
Ai9 mice injected with PBS represented background tdTomato fluorescence.
FIG. 45C illustrates the proportion of additional splenic immune cell populations expressing tdTomato with Lipids 10a-27 and 10a-26 (mean+std. dev., n=3), which also include NK cells (NKp46+, TCR-B−), classical monocytes (CD11b+, Ly-6G−, Ly-6C_hi), nonclassical monocytes (CD11b+, Ly-6G−, Ly-6C_lo), neutrophils (CD11b+, Ly-6G+), and dendritic cells (CD11c+, MHC-II+).
Ai9 mice (B6.Cg-Gt(ROSA)26Sortm9(CAG-tdTomato)Hze/J, female, 6-8 weeks, n=3 per group) were injected i.v. with 0.5 mg/kg Cre circRNA LNPs or PBS. Ai9 mice transcribe and translate the fluorescent reporter tdTomato upon Cre recombination; meaning cells which are tdTomato+ have successfully been transfected with Cre circRNA. After 48 hours, mice were euthanized and their spleens were collected and manually processed into single cell suspensions. The splenocytes were stained for dead cells (LiveDead Fixable Aqua, Thermo) and with anti-mouse antibodies (TCR-B chain, BV421, H57-597; CD45, BV711, 30-F11; CD11b, BV785, ICRF44; NKp46, AF647, 29A1.4; CD19, APC/750, 6D5; TruStain FcX, 93; all antibodies from Biolegend) at 1:200 ratio. Flow cytometry was performed using an Attune Nxt Flow Cytometer (Thermo).

primary human T cells = experiment: LNP transfection of primary human activated T cells with FLuc circRNA with or without ApoE3; format: cell-based; conditions: 4 independent donors
Description: Primary human T cells from independent donors were stimulated with aCD3/aCD28 and allowed to proliferate for 6 days in the presence of human serum and IL-2. Then, 100,000 cells were plated in a 96 well plate and LNPs containing circRNA coding for Firefly Luciferase (FLuc) were added to the cells at 200 ng RNA/well with or without Apolipoprotein E3 (ApoE3). After 24-hour incubation, luminescence was quantified using the Bright-Glo Luciferase Assay System (Promega) according to manufacturer's instructions and background luminescence from cells not treated with LNPs was subtracted. […] (See Example 70 for LNP formulation procesure, e.g., for 10a-27 (5.7A), 10a-26 (5.7A), 10a-27 (4.5D), and 10a-26 (4.5D) LNPs.)

| Structure (SMILES) | spleen to liver ratios (CD-1 or c57BL/6J mice) | delivery of circular RNAs to splenic immune cell subsets (splenic immune cells) | also measured |
| --- | --- | --- | --- |
| CCCCCCCCC(CCCCCC)C(=O)OCCCCCCN(CCCCCCOC(=O)C(CCCCCC)CCCCCCCC)CCCn1ccnc1 (stereo not drawn) [Lipid 10a-26, ((3-(1H-imidazol-1-yl)propyl)azanediyl)bis(hexane-6,1-diyl) bis(2-hexyldecanoate)] | maintaining the desired spleen to liver ratios | effective at delivering circular RNAs to many splenic immune cell subsets | ex vivo IVIS analysis of tissues, overall expression (CD-1 or c57BL/6J mice; 0.5 mg/kg RNA intravenously): increased overall expression; whole-body total flux (CD-1 or c57BL/6J mice; 0.5 mg/kg RNA intravenously, six hours, compared to LNPs made with lipids 22-S14 and 93-S14): increased whole-body total flux; proportion of splenic immune cells expressing tdTomato (transfection) (splenic immune cells): significantly higher myeloid and T cell transfection |
| CCCCCCCCC(CCCCCC)C(=O)OCCCCCCN(CCCCCCOC(=O)C(CCCCCC)CCCCCCCC)CCCn1ccnc1C (stereo not drawn) [Lipid 10a-27, ((3-(2-methyl-1H-imidazol-1-yl)propyl)azanediyl)bis(hexane-6,1-diyl) bis(2-hexyldecanoate)] |  | effective at delivering circular RNAs to many splenic immune cell subsets | proportion of splenic immune cells expressing tdTomato (transfection) (splenic immune cells; 0.5 mg/kg): significantly higher myeloid and T cell transfection; also recorded: transfect significantly more splenic immune cells; Firefly luminescence (primary human T cells): generally produced higher luminescence |
| CCCCCCCCCOC(=O)CCCCCCCN(CCCCCCCC(=O)OC(CCCCCCCC)CCCCCCCC)CCCn1ccnc1 [Lipid 10a-53, heptadecan-9-yl 8-((3-(1H-imidazol-1-yl)propyl)(8-(nonyloxy)-8-oxooctyl)amino)octanoate] | maintaining the desired spleen to liver ratios |  |  |
| CCCCCCCCCOC(=O)CCCCCCCN(CCCCCCCC(=O)OC(CCCCCCCC)CCCCCCCC)CCCn1ccnc1C [Lipid 10a-54, heptadecan-9-yl 8-((3-(2-methyl-1H-imidazol-1-yl)propyl)(8-(nonyloxy)-8-oxooctyl)amino)octanoate] | maintaining the desired spleen to liver ratios |  |  |
| CCCCCCCCCOC(=O)CCCCCCCN(CCO)CCCCCCCC(=O)OC(CCCCCCCC)CCCCCCCC [Lipid 10b-15] | maintaining the desired spleen to liver ratios | effective at delivering circular RNAs to many splenic immune cell subsets |  |

Source: patent publication US20240042015A1 (Orna Therapeutics, Inc., priority 2020, published 2024)
